Test system: mice
Assay: Dark Avoidance Assay (block of scopolamine-induced memory impairment in mice, 24 hours)
Format: in vivo
Protocol: In this assay mice are tested for their ability to remember an unpleasant stimulus for a period of 24 hours. A mouse is placed in a chamber than contains a dark compartment; a strong incandescent light drives it to the dark compartment, where an electric shock is administered through metal plates on the floor. The animal is removed from the testing apparatus and tested again, 24 hours later, for the ability to remember the electric shock.
If scopolamine, an anticholinergic agent that is known to cause memory impairment, is administered before an animal's initial exposure to the test chamber, the animal re-enters the dark compartment shortly after being placed in the test chamber 24 hours later. This effect of scopolamine is blocked by an active test compound, resulting in greater interval before re-entry into the dark compartment.
The results for an active compound are expressed as the percent of a group of animals in which the effect of scopolamine is blocked, as manifested by an increased interval between being placed in the test chamber and re-entering the dark compartment.

c1ccc2c3c(ncc2c1)CCCN3 [1,2,3,4-Tetrahydrobenzo[c]-1,5-naphthyridine]
% of Animals Greater than Scopolamine (dose 1.25 mg/kg of body weight): 27% | % of Animals Greater than Scopolamine (dose 2.5 mg/kg of body weight): 25%

CC[C@@H]1C(=O)OC[C@@H]1Cc1cncn1C [Pilocarpine]
% of Animals Greater than Scopolamine (dose 5.0 mg/kg of body weight): 13%

Nc1c2c(nc3ccccc13)CCCC2 [Tacrine, 9-amino-1,2,3,4-tetrahydro-acridine]
% of Animals Greater than Scopolamine (dose 0.63 mg/kg of body weight): 13%

Reference: US4742061A, “Benzoc[c]-1,5-naphthyridines and related compounds as memory enhancing agents” (priority 1986, dated 1988)
